Consider four molecules from patent publication US10131652B2, “Pyrimidinyloxy benzene derivatives as herbicides” (E. I. DU PONT DE NEMOURS AND COMPANY, priority 2014, dated 2018).

Where two headings read alike, the source gives them in different places.

What all share (type): in vivo
The test system of assay [1] is large (Lg) crabgrass (Digitaria sanguinalis). As to the kind of experiment: Test B pre-/postemergence plant response. The settings on record: Digitaria sanguinalis, 240 h, read-out: Plant response rating, Crabgrass, Large; for pest or weed control at 125 g/ha: 125 g ai/ha; for pest or weed control at 500 g/ha: 500 g ai/ha, 0 to 100 scale (0 no effect, 100 complete control). The method in brief: (§1)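 Scoring used a 0–100 scale (100 = complete control) by visual comparison with untreated plants after approximately 10 days in the greenhouse. Compounds, in surfactant-containing non-phytotoxic solvent, were sprayed onto soil at planting or onto 2–10 cm seedlings.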

In assay [2] the test system is morningglory (Ipomoea spp.). The assay can be described thus: Test B pre-/postemergence plant response. The settings on record: Ipomoea, 240 h, read-out: Plant response rating, Morningglory; for pest or weed control at 125 g/ha: 125 g ai/ha; for pest or weed control at 500 g/ha: 500 g ai/ha, 0 to 100 scale (0 no effect, 100 complete control). The method in brief:
as §1

The subject of assay [3] is velvetleaf (Abutilon theophrasti). As to the kind of experiment: Test B pre-/postemergence plant response. The settings on record: Abutilon theophrasti, 240 h, read-out: Plant response rating, Velvetleaf; for pest or weed control at 125 g/ha: 125 g ai/ha; for pest or weed control at 500 g/ha: 500 g ai/ha, 0 to 100 scale (0 no effect, 100 complete control). The method in brief:
as §1

For assay [4], the system named is blackgrass (Alopecurus myosuroides). The assay can be described thus: Test B postemergence plant response. In short, it runs like this:
(§2)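 Pots, loam soil + sand; postemergence treatment at 1–2 leaf stage, 2–10 cm; greenhouse ~10 d; visual injury score 0 (none) to 100 (complete control) relative to untreated controls.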

For assay [5], the system named is galium (catchweed bedstraw, Galium aparine). The assay can be described thus: Test B postemergence plant response. The method in brief: as §2
The mark [6] stands for this setting: post-emergence, postemergence, 0 to 100 scale, 0 no effect, 100 complete control.
Where [7] appears, read: pre-emergence, Preemergence, 0 to 100 scale where 0 is no effect and 100 is complete control.
Setting [8] is: 31 g ai/ha, Postemergence, 0 to 100 scale, 0 no effect, 100 complete control.
[9] abbreviates: 125 g ai/ha, postemergence, 0 to 100 scale, 0 no effect, 100 complete control.
[10] abbreviates: Postemergence, 500 g ai/ha, 0 to 100 scale (0 no effect, 100 complete control).

Consider `FC(F)(F)c1nccc(-c2ccccc2Oc2ncc(Br)cn2)n1` [Compound 21, 4-[2-[(5-bromo-2-pyrimidinyl)oxy]phenyl]-2-(trifluoromethyl)pyrimidine], for which the pest or weed control at 125 g/ha in assay [1] (setting [6]) is 0%; in assay [1] (setting [7]), 60%; in assay [2] (setting [6]), 20%; in assay [2] (setting [7]), 0%; in assay [3] (setting [6]), 20%; in assay [3] (setting [7]) it was 0%. The pest or weed control at 500 g/ha turned out to be 30% in assay [1] (post-emergence, Postemergence); 100% in assay [1] (pre-emergence, Preemergence); 90% in assay [2] (post-emergence, Postemergence); 0% in assay [2] (pre-emergence, Preemergence); 40% in assay [3] (post-emergence, Postemergence); 20% in assay [3] (pre-emergence, Preemergence).

`Cc1ccc(Oc2ncc(Cl)cn2)c(-c2ccc(C(F)(F)F)nc2)c1` [Compound 22, 5-chloro-2-[4-methyl-2-[6-(trifluoromethyl)-3-pyridinyl]phenoxy]pyrimidine]: the pest or weed control at 125 g/ha in assay [1] (setting [6]) came out at 0%; in assay [1] (setting [7]), 0%; in assay [2] (setting [6]), 0%; in assay [2] (setting [7]), 0%; in assay [3] (setting [6]) it was 50%; in assay [3] (setting [7]), 0%. The pest or weed control at 500 g/ha in assay [1] (post-emergence, Postemergence) was 10%; in assay [1] (pre-emergence, Preemergence), 0%; in assay [2] (post-emergence, Postemergence) it was 10%; in assay [2] (pre-emergence, Preemergence), 0%; in assay [3] (post-emergence, Postemergence) it was 60%; in assay [3] (pre-emergence, Preemergence), 0%.

As for `COc1cccc(Oc2ncc(Cl)cn2)c1-c1cc(C(F)(F)F)no1` [Compound 104], the “Plant response rating, Blackgrass” value in assay [4] (setting [8]) is 70; in assay [4] (setting [9]) it was 100. Further, the “Plant response rating, Galium” value worked out at 90 in assay [5] (setting [8]) and 100 in assay [5] (setting [9]).

Regarding `N#Cc1cccc(Oc2ncc(Cl)cn2)c1-c1cc(C(F)(F)F)ccn1` [Compound 158, 5-chloro-2-[3-cyano-2-[4-(trifluoromethyl)-2-pyridinyl]phenoxy]pyrimidine], the results for the “Plant response rating, Blackgrass” value in assay [4] (setting [9]) and in assay [4] (setting [10]) were 30 and 90, respectively. In addition, the “Plant response rating, Galium” value in assay [5] (setting [9]) is reported as 30; in assay [5] (setting [10]), 100.
